From PubChem BioAssay (NCI)
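Step 1: Grow cells in 96-well plates. Step 2: Expose to compound for 48 hours at 5 concentrations. Step 3: Interpolate endpoints linearly; if unreached, use highest concentration. The concentration for 50% growth inhibition is given as GI50. Definition used: TGI = concentration required for complete inhibition of growth.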

Tests used:
Assay in all cases: NCI tumour cell line growth inhibition, 48 h
HCT-15 colon = test system: HCT-15 colon
SF-539 CNS = test system: SF-539 CNS
SK-MEL-5 melanoma = test system: SK-MEL-5 melanoma
SK-OV-3 ovarian = test system: SK-OV-3 ovarian
SW-620 colon = test system: SW-620 colon
TK-10 renal = test system: TK-10 renal
CAKI-1 renal = test system: CAKI-1 renal
SF-295 CNS = test system: SF-295 CNS
NCI-H226 lung = test system: NCI-H226 lung
CCRF-CEM leukemia = test system: CCRF-CEM leukemia
A498 renal = test system: A498 renal
KM12 colon = test system: KM12 colon
NCI-H23 lung = test system: NCI-H23 lung
OVCAR-8 ovarian = test system: OVCAR-8 ovarian
EKVX NSCLC = test system: EKVX NSCLC
SF-268 CNS = test system: SF-268 CNS
SNB-19 CNS = test system: SNB-19 CNS
MDA-MB-231 breast = test system: MDA-MB-231 breast
MCF7 breast = test system: MCF7 breast
T-47D breast = test system: T-47D breast
RXF 393 renal = test system: RXF 393 renal
HOP-92 NSCLC = test system: HOP-92 NSCLC
OVCAR-3 ovarian = test system: OVCAR-3 ovarian
HL-60(TB) leukemia = test system: HL-60(TB) leukemia
SNB-75 CNS = test system: SNB-75 CNS
NCI-H522 lung = test system: NCI-H522 lung
SN12C renal = test system: SN12C renal
OVCAR-5 ovarian = test system: OVCAR-5 ovarian
OVCAR-4 ovarian = test system: OVCAR-4 ovarian
LOX IMVI melanoma = test system: LOX IMVI melanoma
NCI/ADR-RES ovarian = test system: NCI/ADR-RES ovarian
M14 melanoma = test system: M14 melanoma
HCT-116 colon = test system: HCT-116 colon
MALME-3M melanoma = test system: MALME-3M melanoma
A549 NSCLC = test system: A549 NSCLC
SK-MEL-2 melanoma = test system: SK-MEL-2 melanoma
MDA-MB-435 = test system: MDA-MB-435
U251 CNS = test system: U251 CNS
IGROV1 ovarian = test system: IGROV1 ovarian
PC-3 prostate = test system: PC-3 prostate
RPMI-8226 leukemia = test system: RPMI-8226 leukemia
MOLT-4 leukemia = test system: MOLT-4 leukemia
UACC-257 melanoma = test system: UACC-257 melanoma
BT-549 breast = test system: BT-549 breast
DU-145 prostate = test system: DU-145 prostate
HCC-2998 colon = test system: HCC-2998 colon
NCI-H460 lung = test system: NCI-H460 lung
UO-31 renal = test system: UO-31 renal
HT29 colon = test system: HT29 colon
K-562 leukemia = test system: K-562 leukemia
786-0 renal = test system: 786-0 renal
SK-MEL-28 melanoma = test system: SK-MEL-28 melanoma
HOP-62 NSCLC = test system: HOP-62 NSCLC
HS 578T breast = test system: HS 578T breast
UACC-62 melanoma = test system: UACC-62 melanoma
COLO 205 colon = test system: COLO 205 colon
SR leukemia = test system: SR leukemia
ACHN renal = test system: ACHN renal

SMILES: Cn1cc(-c2nc(N)nnc2-c2c[nH]c3ccccc23)c2cc(Br)ccc21
- GI50 (HCT-15 colon): 0.552 µM
- TGI (HCT-15 colon): 16.4 µM
- GI50 (SF-539 CNS): 2.17 µM
- TGI (SF-539 CNS): 6.88 µM
- GI50 (SK-MEL-5 melanoma): 1.58 µM
- TGI (SK-MEL-5 melanoma): 9.96 µM
- GI50 (SK-OV-3 ovarian): 3.02 µM
- TGI (SK-OV-3 ovarian): 18.7 µM
- GI50 (SW-620 colon): 0.67 µM
- TGI (SW-620 colon): 15.9 µM
- GI50 (TK-10 renal): 6.01 µM
- TGI (TK-10 renal): 34.3 µM
- GI50 (CAKI-1 renal): 0.536 µM
- TGI (CAKI-1 renal): 13.6 µM
- GI50 (SF-295 CNS): 0.922 µM
- TGI (SF-295 CNS): 11.4 µM
- GI50 (NCI-H226 lung): 2.39 µM
- TGI (NCI-H226 lung): 15.9 µM
- GI50 (CCRF-CEM leukemia): 2.21 µM
- TGI (CCRF-CEM leukemia): 13.5 µM
- GI50 (A498 renal): 1.19 µM
- TGI (A498 renal): 5.7 µM
- GI50 (KM12 colon): 0.591 µM
- TGI (KM12 colon): 11.9 µM
- GI50 (NCI-H23 lung): 2.21 µM
- TGI (NCI-H23 lung): 17.2 µM
- GI50 (OVCAR-8 ovarian): 3.62 µM
- TGI (OVCAR-8 ovarian): 69.5 µM
- GI50 (EKVX NSCLC): 2.62 µM
- TGI (EKVX NSCLC): 23.4 µM
- GI50 (SF-268 CNS): 2.51 µM
- TGI (SF-268 CNS): 18.6 µM
- GI50 (SNB-19 CNS): 2.05 µM
- TGI (SNB-19 CNS): 22.7 µM
- GI50 (MDA-MB-231 breast): 4.49 µM
- TGI (MDA-MB-231 breast): 66.1 µM
- GI50 (MCF7 breast): 0.48 µM
- TGI (MCF7 breast): 16.4 µM
- GI50 (T-47D breast): 0.783 µM
- TGI (T-47D breast): 24.4 µM
- GI50 (RXF 393 renal): 1.17 µM
- TGI (RXF 393 renal): 4.4 µM
- GI50 (HOP-92 NSCLC): 2.62 µM
- TGI (HOP-92 NSCLC): 22.4 µM
- GI50 (OVCAR-3 ovarian): 0.507 µM
- TGI (OVCAR-3 ovarian): 4.94 µM
- GI50 (HL-60(TB) leukemia): 0.451 µM
- TGI (HL-60(TB) leukemia): 7.69 µM
- GI50 (SNB-75 CNS): 0.46 µM
- TGI (SNB-75 CNS): 4.54 µM
- GI50 (NCI-H522 lung): 0.646 µM
- TGI (NCI-H522 lung): 8.03 µM
- GI50 (SN12C renal): 5.17 µM
- TGI (SN12C renal): 47.9 µM
- GI50 (OVCAR-5 ovarian): 5.9 µM
- TGI (OVCAR-5 ovarian): 25.5 µM
- GI50 (OVCAR-4 ovarian): 3.72 µM
- TGI (OVCAR-4 ovarian): 21.8 µM
- GI50 (LOX IMVI melanoma): 1.37 µM
- TGI (LOX IMVI melanoma): 27.4 µM
- GI50 (NCI/ADR-RES ovarian): 1.67 µM
- TGI (NCI/ADR-RES ovarian): 18.6 µM
- GI50 (M14 melanoma): 0.768 µM
- TGI (M14 melanoma): 8.45 µM
- GI50 (HCT-116 colon): 0.518 µM
- TGI (HCT-116 colon): 11.9 µM
- GI50 (MALME-3M melanoma): 6.12 µM
- TGI (MALME-3M melanoma): 32.2 µM
- GI50 (A549 NSCLC): 1.55 µM
- TGI (A549 NSCLC): 39.7 µM
- GI50 (SK-MEL-2 melanoma): 1.9 µM
- TGI (SK-MEL-2 melanoma): 13.6 µM
- GI50 (MDA-MB-435): 0.312 µM
- TGI (MDA-MB-435): 11.8 µM
- GI50 (U251 CNS): 2.26 µM
- TGI (U251 CNS): 15.2 µM
- GI50 (IGROV1 ovarian): 0.9 µM
- TGI (IGROV1 ovarian): 24.2 µM
- GI50 (PC-3 prostate): 2.12 µM
- TGI (PC-3 prostate): 64 µM
- GI50 (RPMI-8226 leukemia): 2.35 µM
- TGI (RPMI-8226 leukemia): 46.2 µM
- GI50 (MOLT-4 leukemia): 0.684 µM
- TGI (MOLT-4 leukemia): 4.05 µM
- GI50 (UACC-257 melanoma): 7.26 µM
- TGI (UACC-257 melanoma): 22.4 µM
- GI50 (BT-549 breast): 1.53 µM
- TGI (BT-549 breast): 14.5 µM
- GI50 (DU-145 prostate): 3.26 µM
- TGI (DU-145 prostate): 14.8 µM
- GI50 (HCC-2998 colon): 2.7 µM
- TGI (HCC-2998 colon): 13.7 µM
- GI50 (NCI-H460 lung): 0.551 µM
- TGI (NCI-H460 lung): 12.2 µM
- GI50 (UO-31 renal): 1.99 µM
- TGI (UO-31 renal): 20.8 µM
- GI50 (HT29 colon): 0.483 µM
- TGI (HT29 colon): 5.38 µM
- GI50 (K-562 leukemia): 0.393 µM
- TGI (K-562 leukemia): 13.2 µM
- GI50 (786-0 renal): 2.65 µM
- TGI (786-0 renal): 17.6 µM
- GI50 (SK-MEL-28 melanoma): 6.98 µM
- TGI (SK-MEL-28 melanoma): 22.5 µM
- GI50 (HOP-62 NSCLC): 2.52 µM
- TGI (HOP-62 NSCLC): 19.9 µM
- GI50 (HS 578T breast): 1.89 µM
- TGI (HS 578T breast): 9.3 µM
- GI50 (UACC-62 melanoma): 0.988 µM
- TGI (UACC-62 melanoma): 18.9 µM
- GI50 (COLO 205 colon): 0.877 µM
- TGI (COLO 205 colon): 7.13 µM
- GI50 (SR leukemia): 0.312 µM
- TGI (SR leukemia): 2.43 µM
- GI50 (ACHN renal): 3.57 µM
- TGI (ACHN renal): 20 µM
